Results: US20180311237A1, “COMPOSITIONS AND METHODS FOR PREVENTING AND TREATING MUCOSITIS AND WEIGHT LOSS” (ST IP Holding AG, priority 2007, published 2018)
Like-named read-outs stand apart in the source and are kept apart here. Marks after values point to notes of the source that are not given here.

Assays:
[1] = oral administration with cysteine (Hassan M. Ali et al., 1984); cited from earlier work
[2] = format: in vivo
Procedure: (§1) Ninety-six (96) female nude mice ([…]) were randomly assigned into 8 treatment groups. Each mouse was inoculated with 1×10^6 NCI-H146 (H146) small cell lung cancer cells in a volume of 0.05 mL on their lower left flank with Matrigel. Treatment began once tumors reached a volume of 75-125 mm^3.
(§2) Initiation of drug treatment was designated day 1. Mice in groups 1 and 5 received vehicle by oral gavage once daily on days 1 and 3. […] Mice in groups 5 to 8 received radiation. The radiation was given as 2 doses of 2 Gy/dose on days 2 and 4. This was accomplished by anesthetizing the mice in these groups with ketamine (100 mg/kg) and xylazine (5 mg/kg) and placing them under a lead shield such that the region of the flank with tumor exposed to the radiation. Radiation was delivered using a Philips 160 kV source at a focal distance of approximately 40 cm, and a dose rate of approximately 1.0 Gy/min. Tumours were measured on alternating days throughout the duration of the study. All mice were sacrificed on day 21 and remaining tumours were excised, measured, weighed, photographed and fixed in formalin for later analysis.
All animals were weighed every day and their survival recorded, in order to assess possible differences in animal weight among treatment groups as an indication of possible toxicity resulting from the treatments.

[3] = system: NCI-H146 (H146) small cell lung cancer cells
Procedure: as §1, §2
H146 human lung cancer cells were obtained from ATCC. These cells were grown in DMEM supplemented with 10% Fetal Calf Serum (FCS), penicillin and streptomycin, and 2 mM L-Glutamine. Cells were sub-cultured by removing the medium, rinsing twice with sterile calcium- and magnesium-free phosphate buffered saline (PBS) and adding 1 to 2 ml of 0.25% trypsin, 0.03% EDTA solution. The flask was allowed to sit at 37° C. until the cells detached. Cells were then sub-cultured at a ratio of 1:3.
Tumours were measured once every two days with micro-calipers, and tumour volume was calculated as (length×width)[…]. The tumour growth index (TGI) was calculated using the formula 100−([…]), where Vc is the mean volume of the tumours in the control group and Vt is the mean volume of the tumours in the test group.
Tumour volumes were calculated from the length and width measurements taken on alternating days by calculating the mean radius (r), which was the sum of length and width divided by 4, and using the formula 4/3 πr^3 to calculate the volume.

[4] = remark: listed apart in the source
Procedure: The general condition and body weights of the mice in all groups were observed daily. The percent change in body weight in each group of mice was recorded every day by dividing the average body weight of those mice on the first day of treatment.

[5] = system: endogenous spleen colony forming units (CFU-S); conditions: day 10 post-irradiation
Procedure: The endogenous spleen colony assay was done according to the method of Till and McCulloch. Endogenous spleen colony forming units (CFU-S) were determined on day 10 after irradiation. Animals were sacrificed by cervical dislocation. Their spleens were removed, weighed and fixed in Bouin's fixative. Grossly visible nodules on the surface of the spleen were counted with the naked eye.

[6] = 50, 100, 200 or 400 kg/body weight/day orally for 2 consecutive days, observed 30 days
Source text: Male Swiss albino mice (Mus musculus), 6-8 weeks old with 25±3 g body weight from an inbred colony (obtained from Hamadard University, Delhi, India) were used for the present study. Animals were maintained under controlled conditions of temperature and light in an animal house and were provided with standard mice feed (procured from Hindustan Lever's Ltd. Delhi, India) and water ad libitum.

[7] = system: bone marrow cells
[8] = system: lipid peroxidation (TBARS)
Procedure: Thirty minutes after the last administration, the animals were exposed to 8 Gy gamma radiation. Survival of the animals was recorded for 30 days after irradiation. The reduced glutathione (GSH) and lipid peroxidation (LPO) levels in liver and blood were estimated after 30 minutes of radiation exposure.
The absorbance was read at 532 nm.

[9] = radiation plus 50 mg/kg on days 1 to 20
[10] = radiation plus 100 mg/kg on days 1 and 3
[11] = 50 mg/kg on days 1 and 3, no radiation
[12] = 50 mg/kg on days 1 to 20, no radiation
[13] = 100 mg/kg on days 1 and 3, no radiation
[14] = radiation plus 50 mg/kg on days 1 and 3
[15] = 100 mg/kg body weight/day, 2 days, + gamma radiation

Question: Which results are given for `Cc1c(-c2cnccn2)ssc1=S`?
Answer: dose up to which no signs of toxicity and no mortality were observed (fasted 18 hours, observed 14 days post-drug treatment): up to 2 g/kg; amount administrable without significant toxicity (formulated with carboxymethyl cellulose (CMC)): up to 2000 mg/kg; extent and rate of bioavailability [1]: marked increase; average loss of starting weight by Day 21 ([2]; 50 mg/kg po on days 1 and 3, no radiation): 0.1%; average gain of starting weight by Day 21 ([2]; 50 mg/kg po on days 1 to 20, no radiation): 0.8%; average gain of starting weight by Day 21 ([2]; 100 mg/kg po on days 1 and 3, no radiation): 4.8%; toxicity based on observations of survival and weight change ([2]; 50 or 100 mg/kg po, with or without radiation, 21 days): no evidence of toxicity; average gain of starting weight by Day 21 ([2]; radiation (2 Gy days 2 and 4) plus 50 mg/kg on days 1 and 3): 0.8%; average gain of starting weight by Day 21 [2, 9]: 1.4%; average gain of starting weight by Day 21 [2, 10]: 5.1%; mean tumour volume on Day 1 [3, 11]: 72 mm^3; mean tumour volume on Day 21 [3, 11]: 940 mm^3; mean tumour volume on Day 1 [3, 12]: 76 mm^3; mean tumour volume on Day 21 [3, 12]: 1130 mm^3; mean tumour volume on Day 1 [3, 13]: 110 mm^3; mean tumour volume on Day 21 [3, 13]: 1341 mm^3; effect on tumour volume when given in conjunction with radiation therapy ([3]; doses and dose schedules of this study): does not have an additive effect; mean tumour volume on Day 1 [3, 14]: 93 mm^3; mean tumour volume on Day 21 [3, 14]: 971 mm^3; mean tumour volume on Day 1 [3, 9]: 140 mm^3; mean tumour volume on Day 21 [3, 9]: 1380 mm^3; mean tumour volume on Day 1 [3, 10]: 63 mm^3; mean tumour volume on Day 21 [3, 10]: 769 mm^3; tumour volume relative to vehicle controls by day 21 ([3]; single agent, 50 mg/kg once daily on days 1 and 3 (P=0.030)): significant reduction in tumour volume; Maximum body weight loss in experimental groups [4, 15]: 22.05%; minimum body weight loss in experimental groups [4, 15]: 1.7%; increase in body weight from initial body weight at day-30 post-irradiation ([4]; drug + 6 Gy): 17%; increase in body weight from initial body weight at day-30 post-irradiation ([4]; drug + 8 Gy): 9.5%; increase in body weight from initial body weight at day-30 post-irradiation ([4]; drug + 10 Gy): 13.7%; Number of macroscopic colonies ([5]; drug + 6 Gy): 10.22 ± 0.62; Number of macroscopic colonies ([5]; drug + 8 Gy): 13.80 ± 0.84^c; Number of macroscopic colonies ([5]; drug + 10 Gy): 15.22 ± 0.77^c; toxic effect (mortality or any other sign) [6]: did not produce any toxic effect; Number of Mn/1000 Cells ([7]; drug + 8.0 Gy gamma rays): 6.58 ± 0.64^c; Number of Mn/1000 Cells ([7]; drug alone): 0.28 ± 0.01; Blood LPO ([8]; drug + 6 Gy): 2.44 ± 0.16^c nmol/ml; Liver LPO ([8]; drug + 6 Gy): 3.22 ± 0.12^c nmol/mg; Blood LPO ([8]; drug + 8 Gy): 3.28 ± 0.16^a nmol/ml; Liver LPO ([8]; drug + 8 Gy): 3.80 ± 0.14^c nmol/mg; Blood LPO ([8]; drug + 10 Gy): 3.68 ± 0.18^b nmol/ml; Liver LPO ([8]; drug + 10 Gy): 5.22 ± 0.27^c nmol/mg; Blood LPO ([8]; drug alone, no irradiation): 1.10 ± 0.10 nmol/mL; Liver LPO ([8]; drug alone, no irradiation): 2.42 ± 0.14 nmol/mg
